Patent US11266655B2, “Methods and compositions for treating urea cycle disorders” (Camp4 Therapeutics Corporation, priority 2019, dated 2022)
“And” between values parts separate entries of the source, which are not always exact repeats. Equal values may be shown once. Where a name gives a salt, the structure may show the parent alone.

Assays:
[1] = system: OTC; assay: OTC expression modulated by compounds, OTC/GeoMean of housekeeping genes, DMSO = 1 (Table 3A); type: cell-based, human; conditions: 10 uM final concentration
[2] = system: SLC25A13; assay: RNA-seq of compound-treated primary human hepatocytes, SLC25A13 expression; type: cell-based; conditions: primary human hepatocytes, triplicate (Table 23, FIG. 15)
[3] = system: OTC; assay: RNA-seq of compound-treated primary human hepatocytes, OTC expression; type: cell-based
[4] = system: CPS1; assay: RNA-seq of compound-treated primary human hepatocytes, CPS1 expression; type: cell-based
[5] = system: ASS1; assay: RNA-seq of compound-treated primary human hepatocytes, ASS1 expression; type: cell-based
[6] = system: SLC25A15; assay: RNA-seq of compound-treated primary human hepatocytes, SLC25A15 expression; type: cell-based
[7] = system: ARG1; assay: RNA-seq of compound-treated primary human hepatocytes, ARG1 expression; type: cell-based
[8] = system: OTC; assay: HSP90 or HSP70 inhibitors in primary human hepatocytes, OTC mRNA; type: cell-based; conditions: hepatocytes from Donor B, normalized to B2M
Description: (§1) Additional small molecules that inhibit HSP90 or HSP70 were tested in primary human hepatocytes as described in Example 2. HSP90 or HSP70 inhibitors were tested in triplicate at 0.3 μM and 3 μM. The results are shown as the fold change (mRNA FC) in the mRNA levels of OTC and CPS1 genes after treatment compared to an untreated control (DMSO) and the standard deviation (SD). In addition, a dose titration experiment was performed with selected HSP90 inhibitors. Hepatocytes were incubated with increasing concentrations of HSP90 inhibitors and the changes in OTC and CPS1 expression quantified as previously described.
(§2) HSP90 and HSP70 inhibitors were compared to confirm the role of HSP90 in modulating OTC and CPS1 expression. Hepatocytes from Donor B were incubated with various HSP90 inhibitors or an HSP70 inhibitor, Pifithrin-μ, and then harvested for mRNA quantification. OTC and CPS1 mRNA levels were normalized to B2M.

[9] = system: CPS1; assay: HSP90 or HSP70 inhibitors in primary human hepatocytes, CPS1 mRNA; type: cell-based; conditions: hepatocytes from Donor B, normalized to B2M
Description: as §1, §2

[10] = system: NAGS; type: cell-based, human; conditions: primary human hepatocytes, RNA-seq (Table 6)
[11] = system: urea cycle genes; assay: RNA-seq of primary human hepatocytes, compounds that modulate multiple urea cycle-related genes; type: cell-based; conditions: primary human hepatocytes, RNA-seq
Description: To identify small molecules that modulate urea cycle enzymes, primary human hepatocytes were prepared as a monoculture, and at least one small molecule compound was applied to the cells.
RNA-seq was performed to determine the effects of the compounds on the expression of urea cycle enzymes in hepatocytes. Fold change was calculated by dividing the level of expression in the cell system that had been perturbed by the level of expression in an unperturbed system. Changes in expression having a p-value ≤0.05 were considered significant.
Significance was defined as an FPKM ≥1, a log 2 (fold change) ≥0.5, and a q-value of ≤0.05 for selected gene target.

[12] = system: OTC; assay: HSP90 inhibitor dose titration in hepatocytes of donors A and B, OTC mRNA normalized to B2M; type: cell-based, human; conditions: 18 hours
Description: as §1
(§3) Hepatocytes from two different donors (A and B) were incubated with the various concentrations of HSP90 inhibitors for 18 hours and harvested for mRNA analysis. OTC and CPS1 mRNA were normalized to house keeping gene B2M gene expression.

[13] = system: CPS1; assay: HSP90 inhibitor dose titration in hepatocytes of donors A and B, CPS1 mRNA normalized to B2M; type: cell-based, human; conditions: 18 hours
Description: as §1, §3

[14] = system: OTC; assay: JAK inhibitors at 0.3 and 3 μM in primary human hepatocytes, OTC mRNA fold change; type: cell-based; conditions: fold change vs DMSO
Description: (§4) Additional small molecules that inhibit JAK1, JAK2, JAK3, or a combination of the JAK proteins were tested in primary human hepatocytes as described in Example 2. JAK inhibitors were tested in triplicate at 0.3 μM and 3 μM. The results are shown as the fold change (mRNA FC) in the mRNA levels of OTC and CPS1 genes after treatment compared to an untreated control (DMSO) and the standard deviation (SD).

[15] = system: CPS1; assay: JAK1 inhibitor dose titration in hepatocytes of donors A and B, CPS1 mRNA normalized to B2M; type: cell-based, human; conditions: normalized to B2M
Description: (§5) Next, two JAK1 inhibitors were tested at increasing concentrations in a dose titration assy. Hepatocytes from two different donors (A and B) were incubated with the various concentrations of upadacitinib or oclacitinib maleate and harvested for mRNA analysis. OTC and CPS1 mRNA were normalized to house keeping gene B2M gene expression.

[16] = system: CPS1; assay: JAK inhibitors at 0.3 and 3 μM in primary human hepatocytes, CPS1 mRNA fold change; type: cell-based; conditions: fold change vs DMSO
Description: as §4

[17] = system: OTC; assay: JAK1 inhibitor dose titration in hepatocytes of donors A and B, OTC mRNA normalized to B2M; type: cell-based, human; conditions: normalized to B2M
Description: as §5

O=C(NCCCNc1nc(Nc2cccc(CN3CCOCC3)c2)ncc1C1CC1)C1CCC1 [MRT67307]
Max Value (OTC/GeoMean of HKs; DMSO = 1) [1]: 1.68

FC(F)(F)c1ccc(/C=C/c2nc(COc3ccc(CCCCn4ccnn4)cc3)co2)cc1 [Mubritinib (TAK 165), Mubritinib]
Relative SLC25A13 level vs Untreated (±Standard Deviation) ([2]; 0.3 μM): 1.34 ± 0.33
increase in OTC gene expression (Table 14, FIG. 6) [3]: significant increase
increase in CPS1 gene expression (Tables 19, 20, FIG. 11, 12) [4]: greatest increase
Relative ASS1 level vs Untreated (±Standard Deviation) [5]: 2.56 ± 0.11 and 2.23 ± 0.53 and 2.52 ± 0.15 and 1.66 ± 0.98 and 1.87 ± 0.24 and 2.14 ± 0.39 and 2.77 ± 0.69
increase in ASS1 gene expression (Tables 15, 16, FIG. 7, 8) [5]: greatest increase
Increase in SLC25A15 gene expression (qualitative) [6]: greatest increase
Relative ARGI level vs Untreated (±Standard Deviation) [7]: 1.93 ± 0.05 and 1.86 ± 0.04
increase in ARG1 gene expression (Tables 17, 18, FIG. 9, 10) [7]: greatest increase

CC1(C)CC(=O)c2c(C(F)(F)F)nn(-c3ccc(C(N)=O)c(N[C@H]4CC[C@H](OC(=O)CN)CC4)c3)c2C1 [PF-04929113 (SNX-5422)]
Max Value (OTC/GeoMean of HKs; DMSO = 1) [1]: 1.73

CC1(C)CC(=O)c2c(C(F)(F)F)nn(-c3ccc(C(N)=O)c(N[C@H]4CC[C@H](OC(=O)CN)CC4)c3)c2C1 [PF-04929113]
OTC Expression mRNA FC ([8]; 0.3 uM): 1.77
OTC Expression mRNA FC ([8]; 3 uM): 4.28
Relative CPS1 level vs Untreated (±Standard Deviation) ([4]; 3 μM, primary human hepatocytes, triplicate (Table 19, FIG. 11)): 1.38 ± 0.13
CPS1 Expression mRNA FC ([9]; 0.3 uM): 1.62
CPS1 Expression mRNA FC ([9]; 3 uM): 2.09

NS(=O)(=O)C#Cc1ccccc1 [Pifithrin-μ]
Fold change (Log 2) vs untreated, NAGS expression [10]: 1.18 Log 2
OTC Expression mRNA FC ([8]; 0.3 uM): 1.20
OTC Expression mRNA FC ([8]; 3 uM): 1.29
OTC expression, Fold change (Log 2) vs untreated ([3]; primary human hepatocytes, RNA-seq): 0.79 Log 2
number of urea cycle genes whose expression was significantly up-regulated [11]: three
Up-regulated Genes ([11]; urea cycle-related genes significantly increased (Table 10)): OTC, NAGS, ARG1
Fold change (Log 2) vs untreated, ARG1 expression ([7]; primary human hepatocytes, RNA-seq (Table 7)): 1.87 Log 2
CPS1 Expression mRNA FC ([9]; 0.3 uM): 0.98
CPS1 Expression mRNA FC ([9]; 3 uM): 1.05

C=CCNc1c(O)cc2c(O)c1C[C@@H](C)C[C@H](OC)[C@H](O)[C@@H](C)/C=C(\C)[C@H](OC(N)=O)[C@@H](OC)/C=C\C=C(/C)C(=O)N2 [Retaspimycin Hydrochloride]
Relative SLC25A13 level vs Untreated (±Standard Deviation) ([2]; 0.3 μM): 1.35 ± 0.27
Relative SLC25A13 level vs Untreated (±Standard Deviation) ([2]; 1 μM): 1.31 ± 0.08
Relative SLC25A13 level vs Untreated (±Standard Deviation) ([2]; 3 μM): 1.54 ± 0.17
Relative SLC25A13 level vs Untreated (±Standard Deviation) ([2]; 10 μM): 1.45 ± 0.01
OTC Expression mRNA FC ([8]; 0.3 uM): 2.98
OTC Expression mRNA FC ([8]; 3 uM): 2.53
OTC mRNA FC, Donor A ([12]; 0.01 uM): 1.40
OTC mRNA FC, Donor B ([12]; 0.01 uM): 1.31
OTC mRNA FC, Donor A ([12]; 0.03 uM): 5.91
OTC mRNA FC, Donor B ([12]; 0.03 uM): 1.78
OTC mRNA FC, Donor A ([12]; 0.1 uM): 9.07
OTC mRNA FC, Donor B ([12]; 0.1 uM): 5.18
Relative ASS1 level vs Untreated (±Standard Deviation) [5]: 1.38 ± 0.13
CPS1 mRNA FC, Donor A ([13]; 0.01 uM): 1.54
CPS1 mRNA FC, Donor B ([13]; 0.01 uM): 1.29
CPS1 mRNA FC, Donor A ([13]; 0.03 uM): 3.17
CPS1 mRNA FC, Donor B ([13]; 0.03 uM): 1.67
CPS1 mRNA FC, Donor A ([13]; 0.1 uM): 3.76
CPS1 mRNA FC, Donor B ([13]; 0.1 uM): 2.57
Relative SLC25A15 level vs Untreated (±Standard Deviation) ([6]; Hydrochloride): 1.35 ± 0.27 and 1.31 ± 0.08 and 1.54 ± 0.17 and 1.45 ± 0.01 and 1.60 ± 0.25 and 1.67 ± 0.17 and 1.93 ± 0.13 and 1.77 ± 0.11
Relative ARGI level vs Untreated (±Standard Deviation) [7]: 1.31 ± 0.12
CPS1 Expression mRNA FC ([9]; 0.3 uM): 1.23
CPS1 Expression mRNA FC ([9]; 3 uM): 2.24

CC[C@@H]1CN(C(=O)NCC(F)(F)F)C[C@@H]1c1cnc2cnc3[nH]ccc3n12 [upadacitinib]
OTC mRNA FC ([14]; 0.3 uM): 2.91
OTC mRNA FC ([14]; 3 uM): 2.75
CPS1 mRNA FC, Donor A ([15]; 0.1 uM): 1.26
CPS1 mRNA FC, Donor B ([15]; 0.1 uM): 3.74
CPS1 mRNA FC, Donor A ([15]; 0.3 uM): 1.58
CPS1 mRNA FC, Donor B ([15]; 0.3 uM): 2.54
CPS1 mRNA FC, Donor A ([15]; 1 uM): 2.70
CPS1 mRNA FC, Donor B ([15]; 1 uM): 2.38
CPS1 mRNA FC, Donor A ([15]; 3 uM): 3.15
CPS1 mRNA FC, Donor B ([15]; 3 uM): 1.43
CPS1 mRNA FC, Donor A ([15]; 10 uM): 4.25
CPS1 mRNA FC, Donor B ([15]; 10 uM): 1.21
CPS1 mRNA FC ([16]; 0.3 uM): 2.02
CPS1 mRNA FC ([16]; 3 uM): 1.39
OTC mRNA FC, Donor A ([17]; 0.1 uM): 1.36
OTC mRNA FC, Donor B ([17]; 0.1 uM): 1.56
OTC mRNA FC, Donor A ([17]; 0.3 uM): 1.99
OTC mRNA FC, Donor B ([17]; 0.3 uM): 2.06
OTC mRNA FC, Donor A ([17]; 1 uM): 3.17
OTC mRNA FC, Donor B ([17]; 1 uM): 3.54
OTC mRNA FC, Donor A ([17]; 3 uM): 4.81
OTC mRNA FC, Donor B ([17]; 3 uM): 4.66
OTC mRNA FC, Donor A ([17]; 10 uM): 6.77
OTC mRNA FC, Donor B ([17]; 10 uM): 9.39
